From patent US12275731B2, “Azaindole inhibitors of wild-type and mutant forms of LRRK2” (DANA-FARBER CANCER INSTITUTE, INC., priority 2018, dated 2025)

What was measured:
Assay in all cases: KinomeScan profiling
Format in all cases: binding
RIOK2 = RIOK2 (Homo sapiens, UniProt Q9BVS4); conditions: RIOK2, 1 μM; read-out: % control
Method in brief: (§1)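 Compounds were screened at 1 μM in DMSO across a 468-kinase KinomeScan panel. Binding was expressed as % control, scaled between a positive control (0%) and DMSO (100%) using luminescence signal. A value under 35% counted as active.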

AURKC = biological target: T1, AURKC (Homo sapiens, UniProt Q9UQB9); conditions: read-out: % control
T1 construct: purchased KinomeScan®
T1 sequence (Q9UQB9 1-309): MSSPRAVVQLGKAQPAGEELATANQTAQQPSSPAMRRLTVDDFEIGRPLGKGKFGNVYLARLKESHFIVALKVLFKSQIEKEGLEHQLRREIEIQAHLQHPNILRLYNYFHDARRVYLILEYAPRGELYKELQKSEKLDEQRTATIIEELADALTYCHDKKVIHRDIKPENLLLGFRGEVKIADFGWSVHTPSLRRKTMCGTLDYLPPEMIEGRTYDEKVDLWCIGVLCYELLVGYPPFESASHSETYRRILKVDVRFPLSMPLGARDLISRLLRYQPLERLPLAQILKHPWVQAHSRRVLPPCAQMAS
Method in brief: as §1

BRK = BRK (Homo sapiens, UniProt Q13882); conditions: read-out: % control
BRK, sequence (Q13882 whole entry): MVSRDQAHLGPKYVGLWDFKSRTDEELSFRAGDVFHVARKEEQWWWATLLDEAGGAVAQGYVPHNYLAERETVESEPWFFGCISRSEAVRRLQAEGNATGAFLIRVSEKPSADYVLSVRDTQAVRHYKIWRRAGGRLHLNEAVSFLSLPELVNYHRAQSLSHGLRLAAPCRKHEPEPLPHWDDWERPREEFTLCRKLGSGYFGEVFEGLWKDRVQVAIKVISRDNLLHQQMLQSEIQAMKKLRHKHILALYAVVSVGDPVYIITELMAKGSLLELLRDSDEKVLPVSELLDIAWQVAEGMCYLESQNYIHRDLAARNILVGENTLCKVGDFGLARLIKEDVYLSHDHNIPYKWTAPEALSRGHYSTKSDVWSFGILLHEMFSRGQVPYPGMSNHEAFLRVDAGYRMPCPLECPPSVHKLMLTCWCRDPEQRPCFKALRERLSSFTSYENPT
Method in brief: as §1

PIM2 = biological target: T2, PIM2 (Homo sapiens, UniProt Q9P1W9); conditions: PIM2, 1 μM; read-out: % control
T2 construct: purchased KinomeScan® (panel service)
T2 sequence (Q9P1W9 whole entry): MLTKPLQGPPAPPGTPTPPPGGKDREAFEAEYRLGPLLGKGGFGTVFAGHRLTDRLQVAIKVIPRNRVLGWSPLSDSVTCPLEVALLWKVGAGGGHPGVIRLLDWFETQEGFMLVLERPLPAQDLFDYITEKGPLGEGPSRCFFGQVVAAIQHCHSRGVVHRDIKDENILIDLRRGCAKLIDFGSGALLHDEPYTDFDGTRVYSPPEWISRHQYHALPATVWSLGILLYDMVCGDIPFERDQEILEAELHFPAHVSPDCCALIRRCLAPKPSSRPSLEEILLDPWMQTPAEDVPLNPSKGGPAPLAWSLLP
Method in brief: as §1

MET(M1250T) = MET(M1250T) (Homo sapiens, UniProt P08581, M1250T); conditions: read-out: % control
MET(M1250T), sequence (P08581 25-1390 M1250T): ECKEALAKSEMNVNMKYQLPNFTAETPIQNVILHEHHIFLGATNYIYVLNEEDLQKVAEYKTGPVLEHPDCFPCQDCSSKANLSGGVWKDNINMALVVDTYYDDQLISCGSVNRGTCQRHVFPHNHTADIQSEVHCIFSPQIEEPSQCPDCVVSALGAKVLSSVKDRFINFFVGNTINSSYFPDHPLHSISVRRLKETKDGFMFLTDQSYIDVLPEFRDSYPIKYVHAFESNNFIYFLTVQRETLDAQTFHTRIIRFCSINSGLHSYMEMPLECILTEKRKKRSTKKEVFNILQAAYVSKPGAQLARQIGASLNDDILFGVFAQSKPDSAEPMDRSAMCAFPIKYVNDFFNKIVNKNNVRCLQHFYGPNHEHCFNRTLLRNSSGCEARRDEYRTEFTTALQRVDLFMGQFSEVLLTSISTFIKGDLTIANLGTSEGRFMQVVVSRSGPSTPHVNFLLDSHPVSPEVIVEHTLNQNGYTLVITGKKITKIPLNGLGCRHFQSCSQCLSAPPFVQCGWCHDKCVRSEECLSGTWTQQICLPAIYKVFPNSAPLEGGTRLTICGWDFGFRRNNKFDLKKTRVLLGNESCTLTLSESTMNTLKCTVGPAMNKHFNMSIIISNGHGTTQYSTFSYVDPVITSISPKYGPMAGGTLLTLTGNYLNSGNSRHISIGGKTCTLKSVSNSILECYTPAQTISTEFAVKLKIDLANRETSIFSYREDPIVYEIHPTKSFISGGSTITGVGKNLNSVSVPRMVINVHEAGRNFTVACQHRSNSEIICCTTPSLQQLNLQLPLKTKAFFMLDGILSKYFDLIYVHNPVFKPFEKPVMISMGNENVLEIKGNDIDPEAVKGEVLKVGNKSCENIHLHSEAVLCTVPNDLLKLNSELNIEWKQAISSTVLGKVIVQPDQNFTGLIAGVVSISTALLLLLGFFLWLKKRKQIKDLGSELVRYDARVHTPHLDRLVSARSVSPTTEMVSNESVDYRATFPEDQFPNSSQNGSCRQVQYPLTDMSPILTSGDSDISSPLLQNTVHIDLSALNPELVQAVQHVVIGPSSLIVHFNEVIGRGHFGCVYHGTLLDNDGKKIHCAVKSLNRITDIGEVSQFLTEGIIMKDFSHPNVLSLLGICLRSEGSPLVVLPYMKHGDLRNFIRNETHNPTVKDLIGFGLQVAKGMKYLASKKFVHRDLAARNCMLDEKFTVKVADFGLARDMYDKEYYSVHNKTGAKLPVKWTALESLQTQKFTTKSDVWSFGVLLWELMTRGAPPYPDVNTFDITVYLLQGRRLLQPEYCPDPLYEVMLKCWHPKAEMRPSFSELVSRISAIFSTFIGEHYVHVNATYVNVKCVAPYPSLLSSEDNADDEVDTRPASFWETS
Method in brief: as §1

TYRO3 = biological target: T3, TYRO3 (Homo sapiens, UniProt Q06418); conditions: TYRO3, 1 μM; read-out: % control
T3 sequence (Q06418 41-890): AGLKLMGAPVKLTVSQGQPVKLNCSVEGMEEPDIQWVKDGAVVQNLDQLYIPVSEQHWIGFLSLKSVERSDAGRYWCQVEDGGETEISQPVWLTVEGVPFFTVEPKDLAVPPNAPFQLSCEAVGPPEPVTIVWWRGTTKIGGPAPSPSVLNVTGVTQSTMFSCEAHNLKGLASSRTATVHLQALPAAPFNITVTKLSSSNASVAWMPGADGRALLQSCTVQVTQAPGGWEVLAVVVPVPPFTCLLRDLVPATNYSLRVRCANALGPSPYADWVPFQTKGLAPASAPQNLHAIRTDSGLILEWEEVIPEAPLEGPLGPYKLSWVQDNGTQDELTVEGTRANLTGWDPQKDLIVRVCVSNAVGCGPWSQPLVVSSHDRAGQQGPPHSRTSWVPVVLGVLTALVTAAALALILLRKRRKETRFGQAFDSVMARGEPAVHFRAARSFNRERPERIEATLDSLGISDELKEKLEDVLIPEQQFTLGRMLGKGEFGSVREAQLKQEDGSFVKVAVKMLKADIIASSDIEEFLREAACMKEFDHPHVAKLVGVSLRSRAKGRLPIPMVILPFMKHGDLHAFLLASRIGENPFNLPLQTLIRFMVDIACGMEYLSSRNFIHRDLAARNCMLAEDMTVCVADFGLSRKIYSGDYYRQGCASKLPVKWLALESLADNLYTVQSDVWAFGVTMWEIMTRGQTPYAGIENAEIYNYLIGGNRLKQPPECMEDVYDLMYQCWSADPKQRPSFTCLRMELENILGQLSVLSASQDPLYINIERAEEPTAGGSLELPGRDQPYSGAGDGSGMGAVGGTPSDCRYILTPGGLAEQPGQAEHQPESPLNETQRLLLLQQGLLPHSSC
Method in brief: as §1

p38-alpha = p38-alpha (Homo sapiens, UniProt Q16539); conditions: read-out: % control
p38-alpha, sequence (Q16539 whole entry): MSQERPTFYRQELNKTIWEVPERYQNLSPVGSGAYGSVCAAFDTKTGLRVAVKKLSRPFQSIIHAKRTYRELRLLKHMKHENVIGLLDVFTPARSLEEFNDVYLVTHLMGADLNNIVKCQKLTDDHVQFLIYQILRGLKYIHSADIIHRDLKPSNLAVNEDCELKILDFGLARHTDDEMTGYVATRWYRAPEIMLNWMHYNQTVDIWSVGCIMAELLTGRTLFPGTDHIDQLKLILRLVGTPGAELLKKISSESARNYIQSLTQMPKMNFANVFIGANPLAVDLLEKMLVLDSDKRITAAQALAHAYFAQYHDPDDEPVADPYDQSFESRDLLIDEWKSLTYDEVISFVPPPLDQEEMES
Method in brief: as §1

S6K1 = biological target: T4, S6K1 (Homo sapiens, UniProt P23443); conditions: S6K1, 1 μM; read-out: % control
T4 construct: purchased KinomeScan® (panel service)
T4 sequence (P23443 whole entry): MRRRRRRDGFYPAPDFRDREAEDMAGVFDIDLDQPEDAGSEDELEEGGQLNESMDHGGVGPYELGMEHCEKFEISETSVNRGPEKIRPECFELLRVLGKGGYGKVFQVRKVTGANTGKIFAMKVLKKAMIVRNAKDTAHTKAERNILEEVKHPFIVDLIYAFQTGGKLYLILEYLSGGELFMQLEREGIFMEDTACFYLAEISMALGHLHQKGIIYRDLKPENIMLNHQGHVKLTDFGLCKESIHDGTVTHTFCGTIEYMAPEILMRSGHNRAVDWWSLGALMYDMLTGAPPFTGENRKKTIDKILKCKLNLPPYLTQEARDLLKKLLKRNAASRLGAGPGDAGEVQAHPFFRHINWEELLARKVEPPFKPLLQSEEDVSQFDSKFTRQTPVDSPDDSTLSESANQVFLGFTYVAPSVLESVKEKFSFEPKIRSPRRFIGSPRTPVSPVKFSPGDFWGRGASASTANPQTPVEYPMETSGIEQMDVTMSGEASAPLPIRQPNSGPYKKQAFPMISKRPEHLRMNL
Method in brief: as §1

AMPK-alpha2 = biological target: T5, AMPK-alpha2 (Homo sapiens, UniProt P54646); conditions: AMPK-alpha2, 1 μM; read-out: % control
T5 construct: purchased KinomeScan®
T5 sequence (P54646 whole entry): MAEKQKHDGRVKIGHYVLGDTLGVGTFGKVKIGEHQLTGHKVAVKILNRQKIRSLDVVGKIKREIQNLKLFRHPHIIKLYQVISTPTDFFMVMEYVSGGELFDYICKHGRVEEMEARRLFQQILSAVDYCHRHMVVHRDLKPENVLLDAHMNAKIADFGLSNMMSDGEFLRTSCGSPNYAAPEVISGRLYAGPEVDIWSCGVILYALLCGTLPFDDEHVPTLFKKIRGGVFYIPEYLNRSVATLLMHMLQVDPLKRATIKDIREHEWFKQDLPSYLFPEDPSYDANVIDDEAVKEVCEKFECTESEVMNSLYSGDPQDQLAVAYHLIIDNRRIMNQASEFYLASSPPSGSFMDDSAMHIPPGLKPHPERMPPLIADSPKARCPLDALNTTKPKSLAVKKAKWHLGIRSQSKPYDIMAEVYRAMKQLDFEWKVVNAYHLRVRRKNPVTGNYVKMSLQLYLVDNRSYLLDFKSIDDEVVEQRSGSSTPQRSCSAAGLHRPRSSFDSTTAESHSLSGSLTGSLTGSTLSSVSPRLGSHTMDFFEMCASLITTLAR
Method in brief: as §1

HIPK1 = HIPK1 (Homo sapiens, UniProt Q86Z02); conditions: HIPK1, 1 μM; read-out: % control
Method in brief: as §1

HASPIN = biological target: T6, HASPIN (Homo sapiens, UniProt Q8TF76); conditions: read-out: % control
T6 sequence (Q8TF76 1-798): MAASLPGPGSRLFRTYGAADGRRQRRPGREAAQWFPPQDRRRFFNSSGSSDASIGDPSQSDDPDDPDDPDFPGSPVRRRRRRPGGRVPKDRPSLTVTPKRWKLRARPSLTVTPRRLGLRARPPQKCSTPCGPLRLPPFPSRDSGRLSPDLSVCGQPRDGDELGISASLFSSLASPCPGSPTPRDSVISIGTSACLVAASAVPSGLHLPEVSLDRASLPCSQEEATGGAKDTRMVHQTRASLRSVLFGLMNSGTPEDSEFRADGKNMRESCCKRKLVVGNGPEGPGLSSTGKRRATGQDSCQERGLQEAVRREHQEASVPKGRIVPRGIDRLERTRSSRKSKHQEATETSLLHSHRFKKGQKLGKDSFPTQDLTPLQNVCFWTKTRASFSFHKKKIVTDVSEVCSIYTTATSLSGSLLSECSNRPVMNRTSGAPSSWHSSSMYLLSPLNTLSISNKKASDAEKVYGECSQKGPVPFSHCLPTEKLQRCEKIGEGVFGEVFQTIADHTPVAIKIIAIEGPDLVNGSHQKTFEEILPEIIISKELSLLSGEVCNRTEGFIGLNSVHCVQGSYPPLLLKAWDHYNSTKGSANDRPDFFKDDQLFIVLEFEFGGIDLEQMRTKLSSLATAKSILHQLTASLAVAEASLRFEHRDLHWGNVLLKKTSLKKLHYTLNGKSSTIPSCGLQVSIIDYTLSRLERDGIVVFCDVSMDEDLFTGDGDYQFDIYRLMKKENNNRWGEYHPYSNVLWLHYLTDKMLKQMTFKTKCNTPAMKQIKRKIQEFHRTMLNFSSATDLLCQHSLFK
Method in brief: as §1

PKAC-alpha = biological target: T7, PKAC-alpha (Homo sapiens, UniProt P17612); conditions: read-out: % control
T7 construct: purchased KinomeScan® (panel service)
Method in brief: as §1

RIOK2, sequence (Q9BVS4 whole entry): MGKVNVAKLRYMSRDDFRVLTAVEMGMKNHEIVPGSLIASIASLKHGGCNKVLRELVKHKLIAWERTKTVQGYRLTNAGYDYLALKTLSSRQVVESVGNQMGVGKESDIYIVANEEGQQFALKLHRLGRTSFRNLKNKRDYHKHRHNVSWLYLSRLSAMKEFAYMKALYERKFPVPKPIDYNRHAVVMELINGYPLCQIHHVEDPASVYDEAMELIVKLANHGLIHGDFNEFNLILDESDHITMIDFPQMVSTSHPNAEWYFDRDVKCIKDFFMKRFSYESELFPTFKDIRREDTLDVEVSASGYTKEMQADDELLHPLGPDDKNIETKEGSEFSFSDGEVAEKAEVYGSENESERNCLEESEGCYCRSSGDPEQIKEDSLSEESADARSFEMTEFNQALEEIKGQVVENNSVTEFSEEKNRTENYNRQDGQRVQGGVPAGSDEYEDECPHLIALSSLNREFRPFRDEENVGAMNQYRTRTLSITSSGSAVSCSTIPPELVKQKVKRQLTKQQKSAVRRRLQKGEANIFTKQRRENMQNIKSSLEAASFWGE

| Compound | remaining binding at 1 µM (RIOK2) [%] | remaining binding at 1 µM (AURKC) [%] | remaining binding at 1 µM (BRK) [%] | remaining binding at 1 µM (PIM2) [%] | remaining binding at 1 µM (MET(M1250T)) [%] | remaining binding at 1 µM (TYRO3) [%] | remaining binding at 1 µM (p38-alpha) [%] | remaining binding at 1 µM (S6K1) [%] | remaining binding at 1 µM (AMPK-alpha2) [%] | remaining binding at 1 µM (HIPK1) [%] | remaining binding at 1 µM (HASPIN) [%] | remaining binding at 1 µM (PKAC-alpha) [%] |
| --- | --- | --- | --- | --- | --- | --- | --- | --- | --- | --- | --- | --- |
| CNc1c(-c2cnn([C@H]3CCN(C(C)=O)C[C@@H]3F)c2)cnc2[nH]cc(Cl)c12 [Compound 77, 1-((3S,4S)-4-(4-(3-chloro-4-(methylamino)-1H-pyrrolo[2,3-b]pyridin-5-yl)-1H-pyrazol-1-yl)-3-fluoropiperidin-1-yl)ethan-1-one] | 73 | 26 | 95 | 100 | 49 | 100 | 100 | 50 | 99 | 70 | 9.8 | 100 |
| O=C(c1ccc(-c2cnc3[nH]cc(Cl)c3c2NC2CCCC2)cc1)N1CCC(N2CCOCC2)CC1 [Compound 101, (4-(3-chloro-4-(cyclopentylamino)-1H-pyrrolo[2,3-b]pyridin-5-yl)phenyl)(4-morpholinopiperidin-1-yl)methanone] | 28 | 71 | 86 | 94 | 23 | 56 | 100 | 100 | 55 | 92 | 22 | 100 |
| CNc1c(-c2ccc(C(=O)N3CCC(N4CCOCC4)CC3)cc2)cnc2[nH]cc(Cl)c12 [Compound 96, (4-(3-chloro-4-(methylamino)-1H-pyrrolo[2,3-b]pyridin-5-yl)phenyl)(4-morpholinopiperidin-1-yl)methanone] | 26 | 49 | 78 | 100 | 78 | 100 | 92 | 87 | 66 | 68 | 1.3 | 100 |
